The text below walks through data of patent US12544403B2, “Methods to treat mitochondrial-associated dysfunctions or diseases” (The General Hospital Corporation, priority 2019, dated 2026).

Series [1] is described as follows: Hematocrit and COHb measurements (blood gas analyzer) in mice chronically breathing CO. The note with it: for hematocrit: after three weeks of 600 ppm CO treatment. The format is in vivo. The procedure:
Eighty microliters of blood were collected by tail snip into a heparinized capillary. Hemoglobin concentration, hematocrit and the saturation of hemoglobin with oxygen (O2Hb) and carbon monoxide (COHb) were measured using a blood gas analyzer (ABL800 FLEX, Radiometer, Copenhagen, Denmark).
(§1) Mice were housed in 80-L transparent acrylic boxes. Control chambers were provided with a constant flow of medical air at 21% FiO2. A concentration of 11% or 17% oxygen was obtained by mixing medical air with nitrogen obtained from a nitrogen generator (MAG-20; Higher Peak). A concentration of 600 ppm CO was obtained by mixing medical air with CO from a cylinder containing 2% CO (20,000 ppm) (Airgas). The total gas flow through the chamber was adjusted to maintain chamber CO2 concentrations below 0.4% (CO200; Extech). Soda lime was added to the chambers as a CO2 scavenger. The oxygen concentration was measured at the outlet port of the chamber with an O2 sensor (MiniOx 1; Ohio Medical), which was calibrated using an 8.55% O2 reference tank (Airgas). In a similar way the CO concentration was measured a CO sensor (MSA Altair PRO; MSA Safety Inc, Pittsburgh, Pa), which was calibrated using a 1000 ppm CO reference cylinder (Airgas). Oxygen levels inside the chambers were tolerated within a 0.4% offset from the target concentration by adjusting nitrogen flow as needed. Temperature was maintained at 24-26° C., and humidity was maintained at 30-70%. A standard light-dark cycle of ˜12 h light exposure was used. Mice were housed in cages with standard bedding and given unlimited access to food and water.

Series [2] deals with Ndufs4 KO mice. Put plainly: Survival and body weight of Ndufs4 KO mice (Leigh syndrome model) breathing CO. The format is in vivo. From the text: All animal work in manuscript was approved by the Subcommittee on Research Animal Care and the Institutional Animal Care and Use Committee of Massachusetts General Hospital. Ndufs4^−/− were obtained from Palmiter laboratory (University of Washington). Mice lacking Phd1 (Aragones et al., 2008), Nestin-Phd2 (Mazzone et al., 2009) and Phd3 (Bishop et al., 2008) were provided by the Carmeliet laboratory (KU Leuven). Vh1L^ch/ch mice were provided by Josef Prchal (University of Utah). Genetic crosses were performed by crossing Ndus4^+/− mice with remaining strains. Throughout this study, Ndufs4^+/+ and Ndufs4^+/− mice were indiscriminately used as healthy controls, since there is no apparent phenotypical difference between these genotypes. When possible, controls from the same genetic cross were used, in order to make comparisons between reasonably similar genetic backgrounds. Pups were genotyped and weaned from mothers at 25-30 d of age. Cages and water were changed weekly. […]
(§2) Mice were housed in 80-L transparent acrylic boxes. […] The oxygen concentration was measured at the outlet port of the chamber with an O2 sensor (MiniOx 1; Ohio Medical), which was calibrated using an 8.55% O2 reference tank (Airgas). In a similar way the CO concentration was measured a CO sensor (MSA Altair PRO; MSA Safety Inc, Pittsburgh, Pa), which was calibrated using a 1000 ppm CO reference cylinder (Airgas). […]

The test system of series [3] is Ndufs4 KO mice. Briefly: T2-weighted brain MRI of Ndufs4 KO mice breathing CO. The format is in vivo.
Source text: as §1
MRI scans of the brain were performed as previously described (Ferrari et al., 2017), using respiratory gated T2-weighted RARE (rapid acquisition of refocused echoes) MRI images acquired on a 4.7-T small animal scanner (Pharmascan; Bruker) with the following parameters: RARE factor: 10, echo time: 60 ms, repetition time: 6000 ms, Averages: 8, 192×192×24 image matrix with a voxel size of 0.130×0.130×0.7 mm. Mice were under anesthesia (isoflurane between 0.5-1.5% in room air) during the imaging procedure. Images were generated using a DICOM reader (Osirix, University of Geneva).

The target in a further series is hemoglobin (Homo sapiens, UniProt P68871+P69905). The note with it: cited from earlier work.
hemoglobin, sequence (P69905 2-142 limits assumed): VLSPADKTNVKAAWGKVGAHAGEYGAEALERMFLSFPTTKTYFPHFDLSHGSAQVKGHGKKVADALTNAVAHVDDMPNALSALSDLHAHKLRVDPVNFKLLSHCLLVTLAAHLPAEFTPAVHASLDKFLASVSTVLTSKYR
hemoglobin, sequence (P68871 2-147 limits assumed): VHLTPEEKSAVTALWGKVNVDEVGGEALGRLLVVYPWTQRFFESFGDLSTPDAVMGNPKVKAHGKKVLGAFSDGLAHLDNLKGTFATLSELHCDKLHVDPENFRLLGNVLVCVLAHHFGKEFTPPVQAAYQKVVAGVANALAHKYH
Series [4] can be described thus: Brain tissue PO2 measurement (vestibular nuclei, optical probe). The format is in vivo, mice. The note with it: optical probe (FIG. 3G). How it is done:
Ndufs4^−/− and WT mice were anesthetized with Isoflurane (induction at 2-4%, maintenance at 1-1.5%), intubated, and mechanically ventilated with a tidal volume of 8 ml/kg, a respiratory rate of 110 breaths per minute and an inspired fraction of oxygen (FiO2) of 21%. Mice were placed in a prone position and the head was stabilized using a stereotaxic frame (ASI instruments, Inc., MI). After incision and dissection of the skin, an opening in the skull was performed using a micro-drill (MD-1200, Braintree Scientific, Inc., MA) and a PO2 probe was inserted at the desired location. The coordinates for the thalamic measurements were mediolateral [ML]=−1.00 mm, anterioposterior [AP]=−2.00 mm, and dorsoventral [DV]=−4.00 mm from the bregma, while the coordinates for the vestibular nuclei were ML=−1.25 mm, AP=−6.00 mm, and DV=−3.90 mm from the bregma. […] In some experiments the FiO2 was modulated over the course of the test and the brain PO2 was simultaneously measured.
as §2

Setting [5] is: Ndufs4 KO mice exposed to CO for 2-3 months (FIG. 3H).

`[C-]#[O+]` [CO, carbon monoxide]: the hematocrit worked out at 76% in series [1] (Ndufs4 KO mice) and 79% in series [1] (WT mice). In series [1] (chronic, continuous 600 ppm CO in air (FIG. 3C)), the “arterial O2Hb” value is around 60%. The “arterial COHb” value in series [1] (chronic, continuous 600 ppm CO in air, WT mice (FIG. 3C)) is around 40%. In addition, the median survival with Ndufs4 KO mice [2] (600 ppm CO in room air (FIG. 3E)) is around 150 days. Moreover, the body weight entry in the series with Ndufs4 KO mice [2] (600 ppm CO started at late-stage disease (FIG. 3D)) was “body weight gradually regained”. Moreover, the “Leigh's disease lesions on MRI” value in the series with Ndufs4 KO mice [3] (setting [5]) is “not present”. In the series with Ndufs4 KO mice [3] (setting [5]), the “new brain lesions on MRI due to chronic CO treatment” value is “hyperintense lesions apparent in the caudoputamen region of the brain”. Also, the “MRI lesions in the vestibular nucleus” value in the series with Ndufs4 KO mice [3] (late-stage Ndufs4 KO mice, 600 ppm CO for 2-3 weeks (FIG. 3F)) is given as “completely reversed lesions in the vestibular nucleus”. Further, the “affinity for hemoglobin relative to oxygen” value at hemoglobin is given as 200 fold. For the same molecule, the entries for the “brain PO2” value in series [4] (Ndufs4 KO mice chronically breathing CO at 600 ppm in air) and in series [4] (WT mice chronically breathing CO at 600 ppm in air) were 36 mmHg and 19 mmHg, respectively.
